Data from patent US10159676B2, “Induction of tumor hypoxia for cancer therapy” (Virginia Commonwealth University, priority 2008, dated 2018).

Legend:
Type in all cases: in vivo, nude mice
UCI-101 tumor xenograft = test: Tumor growth, stilbene 5c with or without bevacizumab
Procedure: FIG. 4. Efficacy of stilbene 5c in vivo and enhanced effect by bevacizumab. Nude mice were injected with UCI-101 cells subcutaneously and mice are treated with stilbene 5c at 20 mg/kg/day Monday-Friday with or without bevacizumab 10 mg/kg twice a week. Tumor volume was calculated by the long and short axes. Each group contains 8 mice and the average tumor volumes and standard deviations were plotted against days.
Tumor cell lines used in this study include UCI-101 ovarian cancer cells and Hep3B hepatocellular carcinoma cells. Cells are grown in IMEM and DMEM, respectively, supplemented with 10% fetal bovine serum, glutamine, and penicillium/streptomycin in 5% CO2 humidified environment. When cells were grown to 80% confluent, cells were harvested with 1% trypsin and washed with phosphate-buffered saline three times before injected subcutaneously into nude mice. For mouse xenograft studies, 2×10^6 tumor cells were injected in the back subcutaneously. Nude mice were purchased from NCI Development Therapeutic Program as described. Tumor size was monitored by long and short axes (a and b, respectively) by a caliber and tumor volume was calculated by the formula ab^2/2. […]. Treatment with AAA bevacizumab was done by tail vein injection at a dose of 10 mg/kg.
Next we used ovarian cancer UCI101 cells to study the in vivo efficacy of stilbene 5c We first administered stilbene 5c with intraperitoneal injection at 25 mg/kg three times a week. Tumor volume was calculated by measuring the long and short axes. […] The failure could be due to the possibility that intermittent dosing leaves a viable rim of tumor, which survives the treatment of VDAs by getting nutritional and blood support from surrounding normal vasculature. When treatment with VDAs is stopped, the viable rim of tumor grows quickly. Tumor vasculature recovers quickly by recruitment of the mobilized endothelial progenitor cells. Based on this rationale, we combined stilbene 5c with bevacizumab, which was used to neutralize VEGF secreted by UCI-101 tumor cells. […]

UCI tumor xenograft = test: Microvascular density by anti-CD34 immunohistochemistry and H & E staining of tumor and normal organs
Procedure: FIGS. 2A-B. Stilbene 5c treatment decreases microvascular density in tumor but not in normal organs. Nude mice with UCI tumor xenograft were treated with 10% DMSO or stilbene 5c at 50 mg/kg intraperitoneally. Mice were sacrificed at 4 hours after injection, and various organs and tumor were harvested for fixation and standard hematoxylin and eosin (H & E) staining. Immunohistochemical staining of each section was performed with anti-CD34 antibody to quantify the microvascular density. In the original immunohistochemical stained sections, brown staining indicated a positive signal for CD34 staining. (A) Shown are the black and white pictures in 200× fold magnification. The numbers of positive signals in each CD34 stained picture are counted and are shown in the right lower corner of each panel. (B) The averages and standard deviations of 4 different fields that show the most abundant microvascular density are plotted in a histogram. The sections from kidney cannot be scored due to the fact that all vessels around renal tubules are fused into a large network in the picture.
After mice were sacrificed, major organs and tumors were dissected and fixed in 10% formalin. Tissues were embedded in paraffin and sections were stained with H & E, and with antibody against CD34 for quantification of microvascular density. The scoring of microvascular density was based on the methods described by Weidner et al. by counting the CD34-positive signals in a photo frame of 200× magnification using Nikon ECLIPSE E800M microscope equipped with a Diagnostic Instruments Spot RT CCD camera.
We took tissues that were studied with DCE-MRI to investigate the vascular density of tumor and correlate with the results from DCE-MRI-derived vascular perfusion studies. We particularly examined sections from heart and brain, where the toxicity of colchicine site inhibitors was observed. Tissue sections were stained with standard H & E and anti-CD34 (an endothelial marker) antibody by immunohistochemistry staining. […] There was also no histological difference in tumor either. We then used anti-CD34 staining to score microvascular density in tumor and various normal organs (54, 55). The results are indicated at the right lower corner of each panel except kidney, which cannot be scored due to fusion of the capillary network rather than discrete dots or tubes in appearance.

UCI-101 tumor xenografts = test: Tumor xenograft size after multiple dosing (days 8, 10, 12); conditions: ip on days 8, 10 and 12; stilbene 5c 50 mg/kg, tirapazamine 60 mg/kg; day 14; 6 mice per group
Procedure: The long and short axes of tumor were measured to calculate tumor size and plotted against days. Each treatment group contains 6 mice.
Mice were then sacrificed at day 14. The long and short axes of tumors were measured to calculate tumor size and plotted against days. Each treatment group contains 6 mice.
Tumor cell lines used in this study include UCI-101 ovarian cancer cells and Hep3B hepatocellular carcinoma cells. Cells are grown in IMEM and DMEM, respectively, supplemented with 10% fetal bovine serum, glutamine, and penicillium/streptomycin in 5% CO2 humidified environment. When cells were grown to 80% confluent, cells were harvested with 1% trypsin and washed with phosphate-buffered saline three times before injected subcutaneously into nude mice. For mouse xenograft studies, 2×10^6 tumor cells were injected in the back subcutaneously. Nude mice were purchased from NCI Development Therapeutic Program as described. Tumor size was monitored by long and short axes (a and b, respectively) by a caliber and tumor volume was calculated by the formula ab^2/2. […] Treatment with AAA bevacizumab was done by tail vein injection at a dose of 10 mg/kg.
Next we measured the size of tumor xenografts after multiple dosing. Nude mice were injected subcutaneously with UCI-101 cells and tumor became visible after day 7. […] Tumor xenografts were measured and sizes are plotted in FIG. 7.

In the case of `COc1cc(/C=C\c2ccc(OC)c(N)c2)cc(OC)c1` [stilbene 5c, cis-3, 4′, 5-trimethoxy-3′-aminostilbene], the “difference in tumor growth between control and treated mice” value (UCI-101 tumor xenograft; intraperitoneal 25 mg/kg three times a week) is reported as “did not detect any difference”, the tumor growth suppression (UCI-101 tumor xenograft; stilbene 5c 20 mg/kg/day Monday to Friday for two weeks, bevacizumab 10 mg/kg twice a week for 5 doses) is reported as “about 45%” and the “decrease of tumor vascular density (CD34)” value (UCI tumor xenograft; 50 mg/kg intraperitoneally, 4 hours after injection, vs 10% DMSO) is reported as roughly 4 fold. For the same compound, the “H & E staining changes in major organs” value (UCI tumor xenograft; after stilbene 5c treatment) was “did not show any significant changes”, the “microvascular density of tumor decreased to (CD34)” value (UCI tumor xenograft; after stilbene 5c treatment) was “nearly one fourth” and the “microvascular density of normal organs (heart, liver, kidney, brain)” value (UCI tumor xenograft; after stilbene 5c treatment 50 mg/kg intraperitoneally) was “does not change”. For the same compound, the “size of tumor compared with the control” value (UCI-101 tumor xenografts) was “about 50%”.
